Experiment [1] has as its system striped bass (M. saxatilis) larvae. Put plainly: Striped bass larvae feeding experiment (day 24-46) on Artemia enriched with DHA/AA emulsions: growth, survivorship. The class given is in vivo, Morone saxatilis. Particulars: day 46. How it is done: Newly hatched striped bass (M. saxatilis) larvae were obtained from the Aquaculture Research Center (ARC) of the Center of Marine Biotechnology (COMB), University of Maryland. Larvae were raised for 17 days post hatching on rotifers, Bracionus plicatilis (2-5 rotifers ml^−1), which were grown separately on fresh-water Chlorella sp. paste (0.5 g/10^6 rotifers/day, obtained from Martek BioSci. Inc. Columbia, Md.).
Seventeen days post-hatched larvae were randomly distributed in eighteen 60-liter rearing tanks at an initial density of 160 larvae per tank. The rearing tanks were gently aerated and the water volume exchanged 1-2 times per day with biofiltered, UV treated recirculating water. A 14:10 h light:dark photoperiod cycle was maintained using fluorescent lights (Daylight; 40 watts; 800-1200 lux at the water surface). Temperature was maintained at 24±2° C. and salinity at 2-6 psu. Water quality was monitored daily, and levels of total NH3, unionized N-3, NO2 and pH were maintained below 0.2 ppm, 0.001 ppm, 0.3 ppm and at 8.02, respectively, by partial replacement with fresh water.
Newly hatched Artemia nauplii were introduced to the larvae from day 17 until day 24 (once a day at 20-40 nauplii 1^−1), while rotifer concentration was reduced gradually to a complete removal by day 24.
Larvae then were fed twice daily with Artemia nauplii, enriched with nine dietary emulsions containing varying proportions of DHA and AA.
A 3×3 factorial design with two nutritional factors (DHA and AA) at three levels each and in duplicate blocks was used. This experimental design allowed for the simultaneous study of the effect of increasing dietary levels of DHA and AA either alone or in various combination of both fatty acids. Nine different emulsions having varying proportions of DHA-rich triacylglycerols from heterotrophically grown algae, Crypthecodinium spp. (0, 11.1 and 21.6 mg g^−1 lipids) and AA-rich triacylglycerols (3, 14.5 and 24.8 mg g^−1 lipids) from fungi, Mortierella spp. (DHASCO and ARASCO, Martek BioSci. Columbia, Md.) were formulated.
A mixture of 2% alginic acid, 2% polyoxyethylene sorbitan mono-oleate (Tween-80), 1% ascorbic acid, 1% vitamin-E, 1% silicon based anti-foaming agent (all mad e by Sigma Co. MO) and 5% soy lecithin (80% phosphatidylcholine, Archer Daniels Midland Co., Decatur, Ill.) were added to the oils (all additions made by weight). […]
Feeding experiments were terminated on day 46. […] Survivorship was determined based on the initial and final count of larvae in each rearing tank. […]

The test system of experiment [2] is Gilthead sea bream, Sparus aurata larvae. Put plainly: Gilthead sea bream larvae fed enriched rotifers and Artemia. The class given is in vivo. Particulars: 5 to 34-day-old sea bream larvae; DHA enriched vs no DHA containing rotifers and Artemia. How it is done:
Gilthead sea bream, Sparus aurata and European sea bass, Dicentrarchus labrax larvae originated from spawns of locally maintained broodstock were stocked over three days with two-day-old larvae (40,000 larvae tank^−1). Sea bream larvae from day 3 to day 20 were fed twice daily rotifers that were previously enriched on first phototrophically grown Nannochloropsis sp. and then on either Algamac-2000 or PL-Cr. Rotifer and Artemia enrichments and larval feeding were carried out as described in Koven et al. 2001. Sea bream larval growth and survival as a function of enrichment materials was recorded on day 34. European sea bass larvae were maintained in darkness until day-8 when they started feeding on non-enriched Artemia nauplii until day 11. From day-11 to day-21, the larvae were fed twice daily under low illumination (approximately 100-lux) Algamac-2000 or PL-Cr enriched Artemia nauplii.
Total lipids were extracted from triplicate samples. Lipid weight was determined gravimetrically (Mettler UMT2 ±0.1 mg, Toledo, Switzerland) and expressed as percent DW of sample. Fatty acid methyl esters (FAME) were prepared from the whole lipid extract, and the lipid classes separated, saponified and transmethylated as described by Harel et al. (2000).

The subject of experiment [3] is striped bass (M. saxatilis) larvae. Briefly: Whole larva cortisol (RIA) in high-salinity stress. The class given is in vivo, Morone saxatilis. The conditions noted are these: for Body Cortisol at 30 min: 30 min high-salinity stress. How it is done:
(§1) A group of 30 larvae was promptly transferred from the 10-liter bucket and immediately divided into three 1-liter beakers (ten larvae in each beaker) containing 25-ppt NaCl in dechlorinated fresh water. These hypersaline exposure conditions were established following preliminary tests in which approximately 50% of the larvae survived after 30 minutes exposure. Larval survival at 0, 15 and 30 minutes was recorded, and five larvae at each time interval were quickly removed and sacrificed on dry ice. Samples were washed with chilled distilled water, dried on paper towel, placed into test tubes and lyophilized to constant weight. The dry weight of each hypersaline-exposed larva was recorded to the nearest 0.1 mg. Samples were kept at −80° C. for subsequent whole larva cortisol analysis.
Cortisol was measured on whole larva using a solid-phase radioimmunoassay (RIA) Coat-A-Count Cortisol kit (DPC, Los Angeles, Calif.) following the manufacturer's procedure. Whole body cortisol was extracted from lyophilized larvae with ethyl ether (Barry et al. 1995). Extraction efficiency was determined by adding 1000 dpm 1,2,6,7-^3H-cortisol to each larva sample (specific activity −67.0 Ci mmol^−1, Amersham, Piscataway, N.J.). Cortisol extracts were reconstituted in 150 μl RIA buffer (included in the cortisol RIA kit). Cortisol concentration was then determined in 100-μl aliquots. Spiking recovery was measured in unknown samples using three spiking dilutions (1, 3, 7 ng, Cortisol Immulite, DPC, Los Angeles, Calif.). […] Two additional 20-μl aliquots were taken to determine ^3H-cortisol recovery.

Experiment [4] has the same test system. Briefly: Salinity stress test, larval survival. The class given is in vivo, Morone saxatilis. Particulars: for Survival (%) at 30 min: 30 min high-salinity stress (25 psu). How it is done: as §1
The subject of experiment [5] is white bass, Morone chrysops larvae. Briefly: White bass larvae feeding (22 days) on enriched Artemia: growth, survival, total lipid. The class given is in vivo. How it is done:
Larvae rearing. Newly hatched white bass, Morone chrysops larvae were obtained from AquaFutures Inc. (Turners Falls, Mass.). Larvae were grown for 17 days on rotifers, Bracionus plicatilis (2-5 rotifers/ml), which had been cultured on fresh water Chlorella (Martek BioSci. Inc. Columbia, Md.) paste (0.5 g/10^6 rotiferes/day). Larvae were randomly distributed in eighteen 60-liter larval rearing tanks at an initial density of 160 larvae per tank. The tanks were gently aerated and the water volume exchanged 1-2 times per day with biofiltered, U.V treated recirculating water. A 14:10 h light:dark photoperiod was maintained using fluorescent light tubes (Daylight; 40 watts; 800-1200 lux at the water surface). Temperature was maintained at 242° C. and salinity at 2-6 psu. Water quality was monitored daily and levels of total NH3, unionized NH3, NO2 and pH were maintained below 0.2 ppm, 0.001 ppm, 0.3 ppm and at 8.02, respectively. […]
Larvae were then fed twice daily with previously enriched Artemia nauplii, as described above, at a concentration of 50-100 nauplii/liter for the next 22 days.
[…] The dry weight of each larva was recorded to the nearest […] Nettler UMT2, Toledo, Switzerland). […] Survivorship was determined based on the initial and final count of larvae in each rearing tank.

Setting [6] is: dietary DHA 0.0 mg g^−1 D.W, pooled over AA levels.

Where “and” joins values, the source holds several entries; their conditions need not be identical. Equal values may be shown once.

These results are taken from patent US7067145B2, “Use of arachidonic acid for enhanced culturing of fish larvae and broodstock” (University of Maryland Biotechnology Institute, priority 2000, dated 2006).

Turning to `CC/C=C\C/C=C\C/C=C\C/C=C\C/C=C\C/C=C\CCC(=O)O` [DHA, docosahexaenoic acid], the “Larval weight (mean)” value in experiment [1] (21.6-mg DHA g^−1 lipids) is reported as 20.4 mg dry weight; in experiment [1] (zero dietary DHA) it was 22.7 mg dry weight. In addition, the “Improvement of larval growth” value in experiment [2] was ≤ 40%. Further, the entries for the “Body Cortisol at 0 min” value in experiment [3] (setting [6]), in experiment [3] (dietary DHA 11.1 mg g^−1 D.W) and in experiment [3] (dietary DHA 21.6 mg g^−1 D.W) were 123 ± 8^A pg mg^−1 D.W, 128 ± 16^A pg mg^−1 D.W and 118 ± 11^A pg mg^−1 D.W, respectively. Further, the “Body Cortisol at 30 min” value was 155 ± 16^B pg mg^−1 D.W in experiment [3] (dietary DHA 0.0 mg g^−1 D.W), 182 ± 22^AB pg mg^−1 D.W in experiment [3] (dietary DHA 11.1 mg g^−1 D.W) and 193 ± 26^A pg mg^−1 D.W in experiment [3] (dietary DHA 21.6 mg g^−1 D.W). The figures for the “Survival (%) at 30 min” value in experiment [4] (setting [6]), in experiment [4] (dietary DHA 11.1 mg g^−1 D.W) and in experiment [4] (dietary DHA 21.6 mg g^−1 D.W) were 30.7 ± 4.9^B %, 48.3 ± 7.2^AB % and 50.99 ± 5.8^A %, respectively.

Regarding `CCCCC/C=C\C/C=C\C/C=C\C/C=C\CCCC(=O)O` [AA, arachidonic acid], the “Larval growth (weight)” value in experiment [5] (25.4% AA of enrichment total fatty acids, 11.1% DHA) is given as 13.1±1.5 mg dry weight; in experiment [5] (no dietary AA, 11.1% DHA of total fatty acids in enrichment lipids) it was 21.3±1.8 mg dry weight. Besides, the Larval weight came to 19.4 mg dry weight in experiment [1] (3-mg AA g^−1 lipids) and 23.7 mg dry weight in experiment [1] (14.5-mg AA g^−1 lipids). In addition, the “Body Cortisol at 0 min” value is 106 ± 10^B pg mg^−1 D.W in experiment [3] (dietary AA 3.0 mg g^−1 D.W), 142 ± 15^A pg mg^−1 D.W in experiment [3] (dietary AA 14.5 mg g^−1 D.W) and 122 ± 10^AB pg mg^−1 D.W in experiment [3] (dietary AA 24.8 mg g^−1 D.W). Moreover, the “Body Cortisol at 30 min” value is listed as 171 ± 18^A pg mg^−1 D.W in experiment [3] (dietary AA 3.0 mg g^−1 D.W), 192 ± 27^A pg mg^−1 D.W in experiment [3] (dietary AA 14.5 mg g^−1 D.W) and 167 ± 20^A pg mg^−1 D.W in experiment [3] (dietary AA 24.8 mg g^−1 D.W). The “Increase in basal cortisol levels” value in experiment [3] (increasing dietary AA from 3 to 14.5 mg AA g^−1 lipids) is recorded as ~40%. The “Mortality after 30 min of exposure” value in experiment [4] (3 mg g^−1 lipids dietary AA (AA deficient larvae), 25-psu) is listed as “over 80%”. Moreover, the “Survival (%) at 30 min” value in experiment [4] (dietary AA 3.0 mg g^−1 D.W, pooled over DHA levels) is 19.5 ± 1.8^B %; in experiment [4] (dietary AA 14.5 mg g^−1 D.W), 61.8±4.2% and 61.8 ± 4.2^A %; in experiment [4] (dietary AA 24.8 mg g^−1 D.W), 48.7 ± 5.0^A %.
